# Measurements as given in PMC6215257, “Erianin against Staphylococcus aureus Infection via Inhibiting Sortase A” (Toxins, 2018).
# Key:
# R197A-SrtA (Sortase A) = molecular target: T1, R197A-SrtA (Sortase A) (Staphylococcus aureus, UniProt Q2FV99, R197A); test: fluorescence quenching binding constant (KA); FRET inhibition reduced vs WT
# T1 construct: residues 60–206 (pG-srtAΔN59, pGEX-6P-1)
# Sortase A (srtA) = molecular target: T2, Sortase A (srtA) (Staphylococcus aureus, UniProt Q2FV99); test: FRET peptide cleavage assay with purified SrtA; binding also by fluorescence quenching (KA […] L/mol); format: biochemical
# T2 construct: residues 60–206 (pG-srtAΔN59, pGEX-6P-1)
# V193A-SrtA (Sortase A) = molecular target: T3, V193A-SrtA (Sortase A) (Staphylococcus aureus, UniProt Q2FV99, V193A); test: fluorescence quenching binding constant (KA); FRET inhibition reduced vs WT
# T3 construct: residues 60–206 (pG-srtAΔN59, pGEX-6P-1)
smiles,measurement,setting,value
COc1ccc(CCc2cc(OC)c(OC)c(OC)c2)cc1O [erianin],Kd,R197A-SrtA (Sortase A),2530 nM
same,IC50,Sortase A (srtA),65700 ± 7200 nM
same,Kd,V193A-SrtA (Sortase A),2280 nM
